# Laboratory results: US20150282489A1, “SYNERGISTIC FUNGICIDAL COMPOSITIONS CONTAINING LACTOPEROXIDASE SYSTEM” (DSM IP ASSETS B.V., priority 2012, published 2015)
# Columns and labels:
# [1] = system: powdery mildew spores (spores of Oidium neolycopersici); assay: Treatment of tomato plants against mildew disease (Example 2, lactoperoxidase system applied first, natamycin after one hour); assay type: in vivo, Oidium neolycopersici on tomato plants
# Protocol: (§1) Tomato plants were grown in a greenhouse using well known methods. Twenty-five days after planting, the tomato plants were inoculated with powdery mildew spores (spores of Oidium neolycopersici). Fourteen days after the tomato plants were inoculated with the spores, the plants were treated with: All compositions comprising natamycin comprised glycerol (2.5 ml/l ) and polyether trisiloxane (BREAK-TRU®; 0.25 ml/l ). The lactoperoxidase system comprised lactoperoxidase, potassium iodide, potassium thiocyanate and a hydrogen peroxide source. When the lactoperoxidase system was used alone, ADDIT, a rapeseed-oil based adjuvant, was added to the lactoperoxidase system. The tomato plants were sprayed with 2000 lof the respective composition per ha, corresponding to a rate of about 130 ml of the respective composition per plant. The trial was performed on four plots with each plot containing 5 tomato plants. Powdery mildew growth was assessed in a twofold manner: (i) the number of visible colonies on 2 marked leafs of each tomato plant were counted; and (ii) the antifungal activity (in %) of the individual and combined active ingredients was determined by calculating the reduction in mould growth observed on the marked leafs of the tomato plants that were treated with the antifungal composition in comparison to the mould growth on the marked leafs of the tomato plants that were treated with the control composition. The expected antifungal activity (E in %) of the combined antifungal composition comprising both active ingredients was calculated according to the Colby equation (Colby, 1967): E=X+Y−[(X·Y)/100] wherein X and Y are the observed antifungal activities (in %) of the individual active ingredients X and Y, respectively. If the observed antifungal activity (O in %) of the combination exceeds the expected antifungal activity (E in %) of the combination and the synergy factor O/E is thus >1.0, the combined application of the active ingredients leads to a synergistic antifungal effect. The experiment was done as described in Example 1, with the proviso that first of all the lactoperoxidase system was applied to the tomato plants and after one hour (when the tomato plants were dry again) the natamycin composition was applied.
# [2] = system: powdery mildew spores (spores of Oidium neolycopersici); assay: Treatment of tomato plants against mildew disease (Example 1, natamycin and lactoperoxidase system mixed before application); assay type: in vivo, Oidium neolycopersici on tomato plants
# Protocol: as §1, with “with: a) a composition comprising natamycin (1500 ppm), b) a composition comprising a lactoperoxidase system, or c) a composition comprising natamycin (1500 ppm) and a lactoperoxidase system (natamycin and the lactoperoxidase system were mixed before application to the tomato plants). As a control, untreated tomato plants were used.” for “with:”, “effect.” for “effect. The experiment was done as described in Example 1, with the proviso that first of all the lactoperoxidase system was applied to the tomato plants and after one hour (when the tomato plants were dry again) the natamycin composition was applied.”
compound,measurement,setting,value
"C[C@@H]1C/C=C/C=C/C=C/C=C/[C@H](O[C@@H]2O[C@H](C)[C@@H](O)[C@H](N)[C@@H]2O)C[C@@H]2O[C@](O)(C[C@@H](O)C[C@H]3O[C@@H]3/C=C/C(=O)O1)C[C@H](O)[C@H]2C(=O)O [Natamcyin, natamycin]",Change in visible fungal colonies at 9 days after application,"[1]; 9 days after application, combination applied sequentially",increase in visible fungal colonies
same,"Average number of fungal colonies per tomato leaf, Day 9","[1]; 9 days after application, combination: lactoperoxidase system first, natamycin after one hour",11.9
same,"Average number of fungal colonies per tomato leaf, Day −1","[1]; one day before application (baseline), combination applied sequentially",6.1
same,"Average number of fungal colonies per tomato leaf, Day 9 corrected for Day −1","[1]; positive = increase, negative = decrease from day −1 to day 9, combination applied sequentially",5.8
same,Change in visible fungal colonies at 9 days after application,[2]; 9 days after application of the respective compositions,increase in visible fungal colonies
same,"Average number of fungal colonies per tomato leaf, Day 9","[2]; 9 days after application, natamycin 1500 ppm, spray 2000 l/ha",11.9
same,"Average number of fungal colonies per tomato leaf, Day −1","[2]; one day before application of the composition (baseline), natamycin 1500 ppm, spray 2000 l/ha",6.1
same,"Average number of fungal colonies per tomato leaf, Day 9 corrected for Day −1","[2]; positive = increase, negative = decrease from day −1 to day 9, natamycin 1500 ppm",5.8
